Measurements as given in patent publication US11173151B2, “Substituted triazole derivatives and uses thereof” (BAYER AKTIENGESELLSCHAFT, priority 2017, dated 2021).

How the values were obtained:
[1] = target: T1, human V1a receptor (Homo sapiens, UniProt P37288); test: Cellular in vitro assay for determining vasopressin receptor activity, V1a receptor cell line (CHO, aequorin luminescence); assay type: cell-based; conditions: for IC50: CHO cell line transfected with human V1a receptor, [Arg]-vasopressin at EC50 concentration, read-out: IC50 hV1a; for ratio IC50 hV2/hV1a: selectivity ratio IC50 hV2 / IC50 hV1a
T1 construct: expressed in transfected cells; host or cells: CHO K1 (ATCC), also stably transfected with a modified aequorin
Outline: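 Antagonism is measured in stable CHO K1 transfectants coexpressing the Gαq-coupled receptor and a calcium-sensitive aequorin photoprotein. Agonist challenge uses [Arg]-vasopressin at EC50 after a 10-minute compound exposure; IC50 values come from the luminescence signal.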

[2] = target: T2, human V2 receptor (Homo sapiens, UniProt P30518); test: Cellular in vitro assay for determining vasopressin receptor activity, V2 receptor cell line (CHO, CRE-luciferase); assay type: cell-based; conditions: CHO cell line transfected with human V2 receptor; [Arg8]-vasopressin at EC50 concentration, 3 hours; read-out: IC50 hV2
T2 construct: expressed in transfected cells; host or cells: CHO K1 (ATCC) expressing firefly luciferase under a CRE-responsive promoter
T2 sequence (P30518 whole entry): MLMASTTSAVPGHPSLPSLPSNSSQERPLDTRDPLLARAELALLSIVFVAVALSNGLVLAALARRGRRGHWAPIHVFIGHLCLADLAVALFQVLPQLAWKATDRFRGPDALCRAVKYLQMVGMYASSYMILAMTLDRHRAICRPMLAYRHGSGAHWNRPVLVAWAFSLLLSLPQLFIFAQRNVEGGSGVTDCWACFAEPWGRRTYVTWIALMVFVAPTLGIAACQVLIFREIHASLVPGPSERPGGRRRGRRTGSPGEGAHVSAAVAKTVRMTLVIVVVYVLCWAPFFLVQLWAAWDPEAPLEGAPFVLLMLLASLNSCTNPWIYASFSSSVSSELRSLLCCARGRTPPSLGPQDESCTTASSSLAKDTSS

T1 sequence (P37288 whole entry): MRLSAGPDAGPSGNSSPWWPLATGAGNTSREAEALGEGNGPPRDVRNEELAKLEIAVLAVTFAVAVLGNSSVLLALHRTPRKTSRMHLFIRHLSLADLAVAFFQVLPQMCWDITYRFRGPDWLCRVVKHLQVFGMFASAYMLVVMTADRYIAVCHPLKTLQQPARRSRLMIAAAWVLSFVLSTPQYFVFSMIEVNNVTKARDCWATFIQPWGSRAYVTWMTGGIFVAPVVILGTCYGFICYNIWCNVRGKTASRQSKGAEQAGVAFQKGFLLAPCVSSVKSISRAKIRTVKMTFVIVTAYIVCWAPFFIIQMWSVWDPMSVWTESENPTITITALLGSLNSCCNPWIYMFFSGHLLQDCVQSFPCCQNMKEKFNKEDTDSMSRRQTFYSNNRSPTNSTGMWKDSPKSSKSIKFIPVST

Structure (SMILES) | IC50 [1] [nM] | ratio IC50 hV2/hV1a [1] | IC50 [2] [nM]
O=C(NCC1CCCCC1)c1ccccc1-n1cnc(Cn2nc(-c3ccc(Cl)cc3)n(C[C@H](O)C(F)(F)F)c2=O)n1 [Example 318, 2-[3-({3-(4-Chlorophenyl)-5-oxo-4-[(2S)-3,3,3-trifluoro-2-hydroxypropyl]-4,5-dihydro-1H-1,2,4-triazol-1-yl}methyl)-1H-1,2,4-triazol-1-yl]-N-(cyclohexylmethyl)benzamide] | 14.5 | 63.4 | 920
CC1CCC(NC(=O)c2ccccc2-n2cnc(Cn3nc(-c4ccc(Cl)cc4)n(C[C@H](O)C(F)(F)F)c3=O)n2)CC1 (stereo partly drawn) [Example 321, 2-[3-({3-(4-Chlorophenyl)-5-oxo-4-[(2S)-3,3,3-trifluoro-2-hydroxypropyl]-4,5-dihydro-1H-1,2,4-triazol-1-yl}methyl)-1H-1,2,4-triazol-1-yl]-N-(4-methylcyclohexyl)benzamide] | 13 | 43.8 | 570
CC(C)N(C(=O)c1ccccc1-n1cnc(Cn2nc(-c3ccc(Cl)cc3)n(C[C@H](O)C(F)(F)F)c2=O)n1)C(C)C [Example 324, 2-[3-({3-(4-Chlorophenyl)-5-oxo-4-[(2S)-3,3,3-trifluoro-2-hydroxypropyl]-4,5-dihydro-1H-1,2,4-triazol-1-yl}methyl)-1H-1,2,4-triazol-1-yl]-N,N-di(propan-2-yl)benzamide] | 14 | 117.9 | 1650
CN(C(=O)c1ccccc1-n1cnc(Cn2nc(-c3ccc(Cl)cc3)n(C[C@H](O)C(F)(F)F)c2=O)n1)C1CCCCC1 [Example 329, 2-[3-({3-(4-Chlorophenyl)-5-oxo-4-[(2S)-3,3,3-trifluoro-2-hydroxypropyl]-4,5-dihydro-1H-1,2,4-triazol-1-yl}methyl)-1H-1,2,4-triazol-1-yl]-N-cyclohexyl-N-methylbenzamide] | 11.1 | 171.9 | 1900
CN(Cc1ccco1)C(=O)c1ccccc1-n1cnc(Cn2nc(-c3ccc(Cl)cc3)n(C[C@H](O)C(F)(F)F)c2=O)n1 [Example 330, 2-[3-({3-(4-Chlorophenyl)-5-oxo-4-[(2S)-3,3,3-trifluoro-2-hydroxypropyl]-4,5-dihydro-1H-1,2,4-triazol-1-yl}methyl)-1H-1,2,4-triazol-1-yl]-N-(furan-2-ylmethyl)-N-methylbenzamide] | 9.95 | 135.7 | 1350
CN1CCCN(C(=O)c2ccccc2-n2cnc(Cn3nc(-c4ccc(Cl)cc4)n(C[C@H](O)C(F)(F)F)c3=O)n2)CC1 [Example 331, 5-(4-Chlorophenyl)-2-[(1-{2-[(4-methyl-1,4-diazepan-1-yl)carbonyl]phenyl}-1H-1,2,4-triazol-3-yl)methyl]-4-[(2S)-3,3,3-trifluoro-2-hydroxypropyl]-2,4-dihydro-3H-1,2,4-triazol-3-one] | 33 | 233.3 | 7700
CN(C)[C@H]1CCN(C(=O)c2ccccc2-n2cnc(Cn3nc(-c4ccc(Cl)cc4)n(C[C@H](O)C(F)(F)F)c3=O)n2)C1 [Example 332, 5-(4-Chlorophenyl)-2-{[1-(2-{[(3S)-3-(dimethylamino)pyrrolidin-1-yl]carbonyl}phenyl)-1H-1,2,4-triazol-3-yl]methyl}-4-[(2S)-3,3,3-trifluoro-2-hydroxypropyl]-2,4-dihydro-3H-1,2,4-triazol-3-one] | 20.5 | 509.8 | 10500
COC[C@H]1CCCN1C(=O)c1ccccc1-n1cnc(Cn2nc(-c3ccc(Cl)cc3)n(C[C@H](O)C(F)(F)F)c2=O)n1 [Example 335, 5-(4-Chlorophenyl)-2-{[1-(2-{[(2R)-2-(methoxymethyl)pyrrolidin-1-yl]carbonyl}phenyl)-1H-1,2,4-triazol-3-yl]methyl}-4-[(2S)-3,3,3-trifluoro-2-hydroxypropyl]-2,4-dihydro-3H-1,2,4-triazol-3-one] | 15.5 | 71.3 | 1100

The next molecules have a lower IC50 [1] than those just listed; values first:

IC50 [1] [nM] | ratio IC50 hV2/hV1a [1] | IC50 [2] [nM] | Structure (SMILES)
2.3 | 123.9 | 285 | O=C(Nc1c(F)cc(F)cc1F)c1ccccc1-n1cnc(Cn2nc(-c3ccc(Cl)cc3)n(C[C@H](O)C(F)(F)F)c2=O)n1 [Example 317, 2-[3-({3-(4-Chlorophenyl)-5-oxo-4-[(2S)-3,3,3-trifluoro-2-hydroxypropyl]-4,5-dihydro-1H-1,2,4-triazol-1-yl}methyl)-1H-1,2,4-triazol-1-yl]-N-(2,4,6-trifluorophenyl)benzamide]
1.35 | 75.9 | 102 | CCCNC(=O)c1ccccc1-n1cnc(Cn2nc(-c3ccc(Cl)cc3)n(C[C@H](O)C(F)(F)F)c2=O)n1 [Example 320, 2-[3-({3-(4-Chlorophenyl)-5-oxo-4-[(2S)-3,3,3-trifluoro-2-hydroxypropyl]-4,5-dihydro-1H-1,2,4-triazol-1-yl}methyl)-1H-1,2,4-triazol-1-yl]-N-propylbenzamide]
2.65 | 103.8 | 275 | CC(C)(C)CNC(=O)c1ccccc1-n1cnc(Cn2nc(-c3ccc(Cl)cc3)n(C[C@H](O)C(F)(F)F)c2=O)n1 [Example 322, 2-[3-({3-(4-Chlorophenyl)-5-oxo-4-[(2S)-3,3,3-trifluoro-2-hydroxypropyl]-4,5-dihydro-1H-1,2,4-triazol-1-yl}methyl)-1H-1,2,4-triazol-1-yl]-N-(2,2-dimethylpropyl)benzamide]
2.05 | 34.4 | 70.5 | Cc1ccccc1NC(=O)c1ccccc1-n1cnc(Cn2nc(-c3ccc(Cl)cc3)n(C[C@H](O)C(F)(F)F)c2=O)n1 [Example 323, 2-[3-({3-(4-Chlorophenyl)-5-oxo-4-[(2S)-3,3,3-trifluoro-2-hydroxypropyl]-4,5-dihydro-1H-1,2,4-triazol-1-yl}methyl)-1H-1,2,4-triazol-1-yl]-N-(2-methylphenyl)benzamide]
1.01 | 118.8 | 120 | O=C(NCC1CC1)c1ccccc1-n1cnc(Cn2nc(-c3ccc(Cl)cc3)n(C[C@H](O)C(F)(F)F)c2=O)n1 [Example 325, 2-[3-({3-(4-Chlorophenyl)-5-oxo-4-[(2S)-3,3,3-trifluoro-2-hydroxypropyl]-4,5-dihydro-1H-1,2,4-triazol-1-yl}methyl)-1H-1,2,4-triazol-1-yl]-N-(cyclopropylmethyl)benzamide]
4.4 | 112.5 | 495 | CC1(C)CCCN(C(=O)c2ccccc2-n2cnc(Cn3nc(-c4ccc(Cl)cc4)n(C[C@H](O)C(F)(F)F)c3=O)n2)C1 [Example 327, 5-(4-Chlorophenyl)-2-[(1-{2-[(3,3-dimethylpiperidin-1-yl)carbonyl]phenyl}-1H-1,2,4-triazol-3-yl)methyl]-4-[(2S)-3,3,3-trifluoro-2-hydroxypropyl]-2,4-dihydro-3H-1,2,4-triazol-3-one]
5.55 | 1612.6 | 8950 | CN(C)[C@@H]1CCN(C(=O)c2ccccc2-n2cnc(Cn3nc(-c4ccc(Cl)cc4)n(C[C@H](O)C(F)(F)F)c3=O)n2)C1 [Example 333, 5-(4-Chlorophenyl)-2-{[1-(2-{[(3R)-3-(dimethylamino)pyrrolidin-1-yl]carbonyl}phenyl)-1H-1,2,4-triazol-3-yl]methyl}-4-[(2S)-3,3,3-trifluoro-2-hydroxypropyl]-2,4-dihydro-3H-1,2,4-triazol-3-one]
2.95 | 289.8 | 855 | O=C(c1ccccc1-n1cnc(Cn2nc(-c3ccc(Cl)cc3)n(C[C@H](O)C(F)(F)F)c2=O)n1)N1CCSC1 [Example 334, 5-(4-Chlorophenyl)-2-({1-[2-(1,3-thiazolidin-3-ylcarbonyl)phenyl]-1H-1,2,4-triazol-3-yl}methyl)-4-[(2S)-3,3,3-trifluoro-2-hydroxypropyl]-2,4-dihydro-3H-1,2,4-triazol-3-one]
2.8 | 453.6 | 1270 | CC1(C)CCCN1C(=O)c1ccccc1-n1cnc(Cn2nc(-c3ccc(Cl)cc3)n(C[C@H](O)C(F)(F)F)c2=O)n1 [Example 336, 5-(4-Chlorophenyl)-2-[(1-{2-[(2,2-dimethylpyrrolidin-1-yl)carbonyl]phenyl}-1H-1,2,4-triazol-3-yl)methyl]-4-[(2S)-3,3,3-trifluoro-2-hydroxypropyl]-2,4-dihydro-3H-1,2,4-triazol-3-one]
1.6 | 600.0 | 960 | O=C(c1ccccc1-n1cnc(Cn2nc(-c3ccc(Cl)cc3)n(C[C@H](O)C(F)(F)F)c2=O)n1)N1CCCCC1 [Example 338, 5-(4-Chlorophenyl)-2-({1-[2-(piperidin-1-ylcarbonyl)phenyl]-1H-1,2,4-triazol-3-yl}methyl)-4-[(2S)-3,3,3-trifluoro-2-hydroxypropyl]-2,4-dihydro-3H-1,2,4-triazol-3-one]
2.75 | 1327.3 | 3650 | COC[C@@H]1CCCN1C(=O)c1ccccc1-n1cnc(Cn2nc(-c3ccc(Cl)cc3)n(C[C@H](O)C(F)(F)F)c2=O)n1 [Example 339, 5-(4-Chlorophenyl)-2-{[1-(2-{[(2S)-2-(methoxymethyl)pyrrolidin-1-yl]carbonyl}phenyl)-1H-1,2,4-triazol-3-yl]methyl}-4-[(2S)-3,3,3-trifluoro-2-hydroxypropyl]-2,4-dihydro-3H-1,2,4-triazol-3-one]
8.5 | 45.9 | 390 | O=C(NC1CC1)c1ccccc1-n1cnc(Cn2nc(-c3ccc(Cl)cc3)n(C[C@H](O)C(F)(F)F)c2=O)n1 [Example 340, 2-[3-({3-(4-Chlorophenyl)-5-oxo-4-[(2S)-3,3,3-trifluoro-2-hydroxypropyl]-4,5-dihydro-1H-1,2,4-triazol-1-yl}methyl)-1H-1,2,4-triazol-1-yl]-N-cyclopropylbenzamide]
